# ChEMBL document CHEMBL6092174, “Synthesis and anti-influenza virus activity of substituted dibenzoxepine-based baloxavir derivatives” (Eur J Med Chem, 2024)
# Test system: Influenza A virus
# Experiment: Antiviral activity against Influenza A virus NA-H274Y (A/PR/8/34) infected in dog MDCK cells assessed as reduction in cytopathic effect incubated for 2 days
# Format: functional, organism-based
row,Compound,EC50
1,O=C1c2c(O)c(=O)ccn2N([C@H]2c3ccc(F)cc3COc3ccccc32)[C@@H]2COCCN12,4.2 nM
2,O=C1c2c(O)c(=O)ccn2N([C@@H]2c3ccccc3OCc3c(Cl)cccc32)[C@@H]2COCCN12,20.5 nM
3,O=C1c2c(O)c(=O)ccn2N([C@@H]2c3ccccc3SCc3c2ccc(F)c3F)[C@@H]2COCCN12 [BALOXAVIR],2.18 nM
